# Source: patent US8329675B2, “Inhibitors of fatty acid amide hydrolase” (Infinity Pharmaceuticals, Inc., priority 2006, dated 2012)
# Molecular target: T1, human FAAH (Homo sapiens, UniProt O00519)
# T1 construct: host or cells: COS-7 cells, transient transfection; 13,000 g membrane fraction solubilised in 1% Triton X-100
# T1 sequence (O00519 1-579): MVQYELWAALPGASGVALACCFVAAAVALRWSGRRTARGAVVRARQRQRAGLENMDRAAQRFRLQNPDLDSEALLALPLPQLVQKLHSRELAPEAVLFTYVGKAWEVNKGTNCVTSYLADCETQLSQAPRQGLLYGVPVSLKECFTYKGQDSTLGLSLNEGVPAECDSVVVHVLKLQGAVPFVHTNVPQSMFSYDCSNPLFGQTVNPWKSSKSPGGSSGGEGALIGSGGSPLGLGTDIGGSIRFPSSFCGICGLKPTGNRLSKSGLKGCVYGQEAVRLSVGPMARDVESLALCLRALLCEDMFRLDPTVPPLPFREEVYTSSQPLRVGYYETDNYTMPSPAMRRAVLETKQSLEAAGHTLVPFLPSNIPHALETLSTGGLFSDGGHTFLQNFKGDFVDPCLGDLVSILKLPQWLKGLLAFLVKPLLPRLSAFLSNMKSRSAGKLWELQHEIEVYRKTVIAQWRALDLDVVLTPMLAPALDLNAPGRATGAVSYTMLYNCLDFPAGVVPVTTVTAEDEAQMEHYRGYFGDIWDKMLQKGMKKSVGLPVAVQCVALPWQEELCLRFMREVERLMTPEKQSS
# Assay: Human FAAH biochemical inhibition assay (AMC arachidonoyl amide fluorescence)
# Settings: not given
# How it was run: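 Solubilized membrane fraction from COS-7 cells transfected with human FAAH, used at a final 0.05 mg/ml in 50 mM Hepes pH 7.5, 1 mM EDTA, 0.2% Triton X-100. Inhibitor pre-incubated 30 min at room temperature; 20 uM final AMC arachidonoyl amide added, reaction run 4 h at room temperature, fluorescence read.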
row,SMILES,Ki
1,OB(O)c1ccc(Cl)cc1 [Compound I-82],0.01 to 1 µM
2,NCCOB(c1ccccc1)c1ccccc1 [Compound I-125],> 1 µM

# Same assay, conditions: Table 1, human FAAH (no asterisk); read-out: Activity (Ki)
row,Ki,SMILES
1,0.01 to 0.1 µM,O=C(NCc1ccco1)c1ccc(B(O)O)cc1 [Compound I-167]
2,< 0.01 µM,O=C(OCc1ccccc1)c1ccc(B(O)O)cc1 [Compound I-173]
3,> 1 µM,O=Cc1ccc(-c2ccccc2)c(F)c1 [Compound I-136]
4,< 0.01 µM,OB(O)c1ccc2cc(OCc3ccccc3)ccc2c1 [Compound I-56]
5,> 1 µM,CN(C)c1ccc(B(O)O)cc1 [Compound I-68]
6,0.01 to 0.1 µM,OB(O)c1cc(F)cc(Br)c1 [Compound I-26]
7,> 1 µM,CCCOc1c(Br)cc(F)cc1B(O)O [Compound I-8]
8,> 1 µM,OB(O)c1cccnc1 [Compound I-91]
9,0.01 to 1 µM,OB(O)c1ccc(N2CCOCC2)cc1 [Compound I-139]
10,> 1 µM,Cn1c(B(O)O)cc2c(OCc3ccccc3)cccc21 [Compound I-116]
11,0.01 to 0.1 µM,O=C(Nc1ccccc1)c1ccc(B(O)O)cc1 [Compound I-169]
12,0.01 to 1 µM,CC(=O)c1cccc(B(O)O)c1 [Compound I-42]
13,< 0.01 µM,CCCCOc1ccc(B(O)O)cc1F [Compound I-36]
14,< 0.01 µM,CCCCCCCc1ccc(B(O)O)cc1 [Compound I-49]
15,> 1 µM,OB(O)c1ccc2cc[nH]c2c1 [Compound I-101]
16,0.01 to 1 µM,CCOc1c(Br)cc(F)cc1B(O)O [Compound I-9]
17,> 1 µM,OB(O)c1ccc2[nH]ccc2c1 [Compound I-128]
18,> 1 µM,OB(O)c1ccc2nccn2c1 [Compound I-109]

row,Ki,SMILES
1,0.01 to 0.1 µM,OB(O)c1ccc(-c2ccccc2)s1 [Compound I-196]
2,0.01 to 0.1 µM,OB(O)c1cc(OC(F)(F)F)ccc1F [Compound I-27]
3,0.01 to 0.1 µM,OB(O)c1ccc(Br)c(F)c1F [Compound I-34]
4,0.01 to 1 µM,OB(O)c1cccc(-c2ccccc2)c1 [Compound I-186]
5,0.01 to 1 µM,O=C(c1ccc(B(O)O)cc1)N1CCOCC1 [Compound I-171]
6,0.01 to 1 µM,OB(O)c1ccccc1OC(F)(F)F [Compound I-48]
7,> 1 µM,Cc1ccccc1B(O)O [Compound I-81]
8,0.01 to 1 µM,CCc1ccc(B(O)O)cc1 [Compound I-57]
9,> 1 µM,OB(O)c1cccc2cnccc12 [Compound I-41]
10,0.01 to 1 µM,OB(O)c1ccc2c(c1)OCCO2 [Compound I-98]
11,0.01 to 0.1 µM,CC(C)Oc1ccc(B(O)O)cc1Cl [Compound I-35]
12,0.01 to 0.1 µM,COc1ccc(CNS(=O)(=O)c2ccc(B(O)O)cc2)cc1 [Compound I-120]
13,0.01 to 0.1 µM,OB(O)c1ccc(OCCn2cccn2)cc1 [Compound I-124]
14,> 1 µM,O=[N+]([O-])c1ccccc1B(O)O [Compound I-66]
15,> 1 µM,OB(O)c1ccc(F)cc1 [Compound I-72]
16,0.01 to 0.1 µM,OB(O)c1ccc(OC2CCCCO2)cc1 (stereo not shown) [Compound I-158]
17,> 1 µM,CC(C)(C)OC(=O)n1c(B(O)O)cc2c(OCc3ccccc3)cccc21 [Compound I-115]
18,< 0.01 µM,O=C(c1ccccc1)c1ccc(B(O)O)cc1 [Compound I-202]

# Same assay, conditions: Table 2, human FAAH (no asterisk); read-out: Activity (Ki)
row,Ki,SMILES
1,0.01 to 0.1 µM,CC(C)(C)OC(=O)Nc1ccc(Oc2ccc(B(O)O)cc2)cc1 [II-288]
2,0.01 to 1 µM,OB(O)c1ccc(Oc2ccncc2)cc1 [II-292]
3,0.01 to 0.1 µM,OB(O)c1ccc(OCCCCc2ccccc2)cc1 [II-165]
4,< 0.01 µM,OB(O)c1ccc(-c2ccc(F)c(F)c2)cc1F [II-2]
5,< 0.01 µM,OB(O)c1ccc(OCCc2ccccn2)cc1F [II-6]
6,< 0.01 µM,OB(O)c1ccc(Oc2ccc(F)c(F)c2)cc1 [II-261]
7,0.01 to 0.1 µM,OB(O)c1ccc2c(c1)Cc1ccccc1-2 [II-30]
8,> 1 µM,Cc1ccc(C)n1-c1ccc(B(O)O)cc1 [II-32]
9,< 0.01 µM,OB(O)c1ccc(OC2Cc3ccccc3C2)cc1F [II-138]
10,< 0.01 µM,OB(O)c1ccc(Oc2cccc(Oc3ccc(Cl)cc3)c2)cc1 [II-191]
11,0.01 to 0.1 µM,OB(O)c1ccc(-c2cccc3ccccc23)cc1F [II-16]
12,< 0.01 µM,C/C(=N\OCc1ccccc1)c1ccc(B(O)O)cc1 [II-130]
13,> 1 µM,CN(C)CCNC(=O)C(Oc1ccc(B(O)O)cc1)c1ccccc1 (stereo not shown) [II-215]
14,> 1 µM,OB(O)c1ccc2scc(COc3ccccc3)c2c1 [II-67]
15,> 1 µM,Cc1ncc(-c2ccc(B(O)O)cc2)s1 [II-45]
16,< 0.01 µM,OB(O)c1ccc(CN2CCc3ccccc32)cc1 [II-142]
17,0.01 to 0.1 µM,COc1ccc(Oc2cc(Oc3ccc(B(O)O)cc3)cc(N(C)C)c2)cc1 [II-192]
18,< 0.01 µM,OB(O)c1ccc2oc(COc3ccccc3)cc2c1 [II-104]
19,< 0.01 µM,OB(O)c1ccc(COCc2ccccc2C(F)(F)F)cc1F [II-74]
20,< 0.01 µM,OB(O)c1ccc(Cn2ccc3ccccc32)cc1 [II-145]
21,0.01 to 1 µM,OB(O)c1ccc(CN(Cc2ccccc2)Cc2ccccc2)cc1 [II-157]
22,0.01 to 0.1 µM,C[C@H](NC(=O)c1ccc(B(O)O)cc1)c1ccccc1 [II-172]
23,> 1 µM,O=[N+]([O-])c1cccc(CCOc2ccc(B(O)O)c(F)c2)c1 [II-40]

row,Ki,SMILES
1,< 0.01 µM,Cc1ccc(Oc2ccc(B(O)O)cc2)cc1Cl [II-276]
2,0.01 to 0.1 µM,O=C(c1ccccc1)c1cc2cc(B(O)O)ccc2o1 [II-15]
3,< 0.01 µM,O=C(CCc1ccccc1)c1ccc(B(O)O)cc1 [II-9]
4,< 0.01 µM,OB(O)c1ccc(Oc2ccc3c(c2)OCO3)cc1 [II-274]
5,0.01 to 0.1 µM,[O-][S+](Cc1ccccc1)c1ccc(B(O)O)cc1 (stereo not shown) [II-233]
6,< 0.01 µM,Cc1cc(CSc2ccc(B(O)O)c(F)c2)ccc1F [II-199]
7,> 1 µM,OB(O)c1cnn(Cc2ccccc2)c1 [II-302]
8,< 0.01 µM,Cc1ccc(Oc2ccc(B(O)O)cc2)cc1C [II-277]
9,0.01 to 0.1 µM,OB(O)c1ccc(OCc2ccccc2)c(Cl)c1 [II-313]
10,0.01 to 0.1 µM,O=C1c2ccccc2C(=O)N1Cc1ccc(B(O)O)cc1 [II-14]
11,0.01 to 0.1 µM,OB(O)c1ccc(Oc2cccc(Oc3cccc4ccccc34)c2)cc1 [II-190]
12,> 1 µM,OB(O)c1ccc(CN(c2ccccc2)c2ccccc2)cc1 [II-158]
13,0.01 to 0.1 µM,OB(O)c1ccc(OCc2cnco2)cc1F [II-135]
14,< 0.01 µM,Cc1ccc(Oc2ccc(B(O)O)cc2)cc1F [II-272]
15,< 0.01 µM,OB(O)c1ccc(-c2nnc(-c3ccco3)o2)cc1 [II-7]
16,< 0.01 µM,O=C1C[N+]2(Cc3ccccc3)CC(=O)O[B-]2(c2ccc(-c3cccc(F)c3)cc2F)O1 (stereo not shown) [II-5]
17,0.01 to 1 µM,O=C(c1ccc(B(O)O)cc1)N(Cc1ccccc1)Cc1ccccc1 [II-223]
18,< 0.01 µM,OB(O)c1ccc(COCc2ccccc2)cc1 [II-132]
19,> 1 µM,OB(O)c1ccc(CNc2cccc3ccccc23)cc1 [II-118]
20,0.01 to 1 µM,O=C(C(Oc1ccc(B(O)O)cc1)c1ccccc1)N1CCCCC1 (stereo not shown) [II-216]
21,0.01 to 0.1 µM,OB(O)c1ccc(-c2cnco2)cc1 [II-77]
22,< 0.01 µM,OB(O)c1ccc(COc2ccccc2)cc1 [II-242]
23,< 0.01 µM,COc1cc(B(O)O)ccc1Oc1cccc(F)c1 [II-282]

row,Ki,SMILES
1,< 0.01 µM,OB(O)c1ccc(OCCCOc2ccccc2)cc1 [II-128]
2,0.01 to 0.1 µM,COc1ccc(-c2ccc(B(O)O)cc2)cc1 [II-300]
3,0.01 to 0.1 µM,Cc1cccc(COc2ccc(B(O)O)cc2)c1 [II-270]
4,< 0.01 µM,OB(O)c1ccc(CCCc2ccccc2)cc1 [II-68]
5,> 1 µM,Cn1c(-c2ccc(B(O)O)cc2)nc2ccccc21 [II-41]
6,> 1 µM,Cc1sc2ccccc2c1B(O)O [II-58]
7,< 0.01 µM,CCCCCC(=O)Nc1cccc(CCOc2ccc(B(O)O)c(F)c2)c1 [II-21]
8,< 0.01 µM,COc1ccc(Oc2cccc(Oc3ccc(B(O)O)cc3)c2)cc1 [II-193]
9,> 1 µM,[O-][S+](Cc1ccc(B(O)O)c(F)c1)c1ccccc1 (stereo not shown) [II-79]
10,< 0.01 µM,COc1ccc(Oc2ccc(B(O)O)cc2)cc1OC [II-262]
11,< 0.01 µM,CCCCNC(=O)c1cccc(Oc2ccc(B(O)O)cc2)c1 [II-220]
12,0.01 to 0.1 µM,CN(C(=O)c1ccc(B(O)O)cc1)c1ccccc1 [II-230]
13,< 0.01 µM,CN(Cc1ccccc1)Cc1ccc(B(O)O)cc1 [II-131]
14,0.01 to 0.1 µM,OB(O)c1ccc(C(O)c2ccccc2)cc1 (stereo not shown) [II-84]
15,< 0.01 µM,OB(O)c1ccc(OCCC2CCCCC2)cc1F [II-92]
16,0.01 to 0.1 µM,OB(O)c1ccc(COC2C3CC4CC(C3)CC2C4)cc1 (stereo not shown) [II-93]
17,< 0.01 µM,CN(C)c1cccc(Oc2ccc(B(O)O)cc2)c1 [II-78]
18,< 0.01 µM,OB(O)c1ccc(Oc2cccc(F)c2)cc1F [II-12]
19,< 0.01 µM,COc1ccc(Oc2ccc(B3OC(C)(C)C(C)(C)O3)cc2)cc1OC [II-264]
20,< 0.01 µM,OB(O)c1ccc(COCc2ccccc2)c(Cl)c1 [II-43]
21,0.01 to 0.1 µM,O=c1ccccn1CCCOc1ccc(B(O)O)cc1 [II-122]
22,0.01 to 0.1 µM,CC1(C)OB(c2ccc(OCc3ccncc3)cc2F)OC1(C)C [II-179]
